Consider four compounds from patent US7485742B2, “Non-glycosidic and non-peptidic inhibitors of selectin, and the use thereof” (Johannes Gutenberg-Universität Mainz, priority 2004, dated 2009).

For one data set, the system named is MM6-cells. Put plainly: XTT-viability test. Format: cell-based. The note with it: after 1.5 hours, FIG. 3. As to the method:
The XTT-assay (Cell Proliferation Kit II (XTT), Roche molekulare Biochemikalien, Mannheim, Germany) was used for the quantification of the anti-proliferative or cytotoxic effects of the substances as synthesized. The assay is based on the conversion of the yellow tetrazolium-salt XTT into an orange formazan-dye by metabolically active cells. The XTT-formazan-dye is soluble in aqueous solutions, and can be directly determined in a quantitative fashion with an ELISA-reader. The incubation time varies depending from the respective experimental setting (e.g. the kind of cell and the cellular concentrations used). Following the addition of the final XTT-reagent, the absorption was determined at 490 nm, at different points in time (e.g. 30 minutes, 4, 6, 8, 12, and 18 hours). All data were analyzed with Microsoft Excel. The IC50 values were calculated with the program GRAFIT, Erithacus Software Ltd., Great Britain.
Using the commercial available XTT-test kit, the cytotoxic behavior of substances with different structural elements against MM6-cells was examined after 1.5 hours. Structural elements that are responsible for the cytotoxicity were identified. The amide-function in combination with free carboxylic acid-functions was identified as particularly cytotoxic.
(In general: Tetrazolium assays rely on reduction of a dye to a coloured formazan, in cell work by metabolically active cells.)

Data set [1] relates to adhesion of PMN leukocytes to BAEC monolayer stimulated with TNF-α (selectin-mediated). Put plainly: Static adhesion assay (leukocyte adhesion to endothelial monolayer). Format: cell-based, bovine. The note with it: for potency in the static adhesion assay, bimosiamose compared with T3: bimosiamose at 600 μM versus T3 at 100 μM. As to the method: The reduction of adhesion of adhering leukocytes to the monolayer stimulated with TNF-α was set to 0%, the one in the untreated control-wells was set to 100%.
Following seeding in 24 well-plates, the examination of the adhesion was performed using (bovine aorta endothelial cells) BAEC monolayers of the cell passage 1-3 seven days. Before performing the assay, the completeness and the uniformity of the BAEC-monolayer was microscopically ensured. The culture medium (500 ml of medium M199, to which 6 ml of penicillin/streptomycin solution 1%, 6 ml L-glutamine (200 mM) and 100 ml (20%) of fetal calf serum, Sigma, Munich, were added) was removed, and the monolayer was washed twofold with DPBS (1000 μl/well, 37° C.). Subsequent to washing, the cells were treated with the cell culture medium containing 20 ng/ml of recombinant tumor necrosis-factor-alpha (TNFα) (in the presence of the respective test substance, dissolved in dimethylsulfoxide (DMSO) or only with DMSO as vehicle) […] at 37° C. and 5% CO2 for 4 hours. After another twofold washing with DPBS (1000 μl/well, 37° C.) 900 μl of the culture medium and 100 μl of a PMN-suspension (10^6 cells per ml) were added per well, and incubated for 30 minutes at 37° C. and 5% CO2. Non-adherent cells were removed by twofold washing with DPBS (1000 μl/well, 37° C.). […]
The BAEC-sections were analyzed with an inverse Leica DM IRS-microscope (Leica, Bensheim, Germany) at 100-fold magnification. […] For the manual counting of PMNs, several randomly selected sections of 0.25 mm^2 in size from the centre of the respective well of the well-plate were counted. […] In order to do so, each PMN in the area as chosen was counted by a PC-mouse click, and the counted cells were labeled. […]
The analysis of the pictures was performed using the publicly available ImageJ-software (available at http://rsb.info.nih.gov/ij), installed on a standard-PC (Maxdata, Mergel, Germany). All pictures as obtained in a test run were grouped into an series, and then analyzed in an automated method using a specifically programmed macro. […]

The subject of a further data set is selectins. The note with it: cited from earlier work.

For `CS(=O)(=O)c1ccc(C2=C(c3ccccc3)C(=O)OC2)cc1` [Rofecoxib], in the data set on MM6-cells, the “cytotoxic behavior (XTT)” value is recorded as “has cytotoxic effects”.

As to `CCCCCCCCCCOc1cc(OCCCCCCCCCC)cc(OCCCCCC(=O)N(c2ccc(C(=O)O)cc2)c2ccc(C(=O)O)cc2)c1` [T3, 6-(3,5-Didecyloxyphenoxy)-hexanoic acid-N,N-bis(4-carboxyphenyl)amide], the “potency in the static adhesion assay, bimosiamose compared with T3” value in data set [1] is “about the same potency”.

As to `CCCCCCCCCCOc1cc(OCCCCCCCCCC)cc(OCCCCCCN(c2ccc(C(=O)O)cc2)c2ccc(C(=O)O)cc2)c1` [T21, 4-(N-(6-(3,5-bis(decyloxy)phenoxy)hexyl)-N-(4-carboxyl-phenyl)amino)benzoic acid], the “cytotoxic behavior (XTT)” value in the data set on MM6-cells was “completely non-toxic”. Also, in data set [1] (static assay, FIG. 1, leukocytes on TNF-α-stimulated BAEC monolayer, 10^-4-10^-7 mol/l tested), the “effect on the reduction of the adhesion (potency)” value is given as “highly potent”.

For `O=C(O)Cc1cccc(-c2cc(CCCCCCc3ccc(O[C@H]4O[C@H](CO)[C@@H](O)[C@H](O)[C@@H]4O)c(-c4cccc(CC(=O)O)c4)c3)ccc2O[C@H]2O[C@H](CO)[C@@H](O)[C@H](O)[C@@H]2O)c1` [bimosiamose, 1,6-bis[3-(3-carboxymethylphenyl)-4-(2-alpha-D-mannopyranosyloxy)phenyl]hexane], in data set [1], the “potency in the static adhesion assay, bimosiamose compared with T3” value is recorded as “about the same potency”. In addition, the “affinity to the selectins compared to sLeX” value in the data set with selectins is “essentially higher affinity”.
